Measurements from patent EP4356929A1, “ANTIFIBROTIC FORMULATION FOR OPHTHALMIC TREATMENT” (Universität Rostock, priority 2022, dated 2024).

Experiment: physchem
Assay type: physicochemical
Conditions: aqueous gamma-cyclodextrin 200 mg/ml
Procedure: This hydrogel can then be loaded with JM, which forms a host-guest complex with the yCD molecules Fig. 2 the amount of chlorine in various EPI crosslinked hydrogel samples was quantified. The EPI contains chlorine, but the final crosslinked hydrogel should not. Gels washed at 37°C in DI water were given either three 1-hour washes (short wash) or two 1-hour washes followed by an overnight wash with water or Ethanol. […] Fig. 3 the maximum solubility of Josamycin in aqueous solutions of various yCD concentrations was measured. Soluble JM was measured by HPLC. […] The amount of JM released was measured over time and expressed as a percent of the total JM initially loaded into the gel. Most of the JM was released within the first 96 hrs. […] On the left are molded and washed gels, which have been completely dried. On the right is a fully rehydrated gel which is almost completely transparent. […] The total drug loading was linearly related to the amount of josamycin in the loading solution.
The first formulation developed is a solution of yCD and JM. Solutions of JM and yCD can be made up to 18.9 mg/ml JM with 200 mg/ml yCD. These solutions are formed by simply mixing the JM and yCD in water or PBS until dissolved. This liquid formulation can then be sterilized via syringe filter before use. The solution is suitable for application to the eye as an eye drop or injection during or after surgery. […]

solubility: ≤ 18.9 mg/mL
SMILES: CO[C@@H]1[C@@H](O[C@@H]2O[C@H](C)[C@@H](O[C@H]3C[C@@](C)(O)[C@@H](OC(=O)CC(C)C)[C@H](C)O3)[C@H](N(C)C)[C@H]2O)[C@@H](CC=O)C[C@@H](C)[C@@H](O)/C=C/C=C/C[C@@H](C)OC(=O)C[C@H]1OC(C)=O [JM, josamycin]
